Laboratory results as given in patent US20220264878A1, “HERBICIDAL COMPOSITION CONTAINING R-TYPE PYRIDYLOXY CARBOXYLIC ACID DERIVATIVE AND USE THEREOF” (Qingdao Kingagroot Chemical Compound Co., Ltd., priority 2019, published 2022).

Key:
Experiment in all cases: Post-emergence foliage spray, pot culture, fresh weight inhibition (Tables 1-48, 51-98, 101-148; 24 days)
Type in all cases: in vivo
Setaria glauca = details: Table 84
How it was run: (§1)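 Greenhouse pot-grown weeds (15 per pot, 3 pots, 4 replicates) at the 5–6-leaf (grasses) or 6–7-leaf (broadleaf) stage were sprayed once on foliage at 450 kg/ha spray volume, 0.3 MPa. Acetone solutions were diluted in 0.1% Tween-80. Aboveground fresh weight versus blank control was recorded after 24 days.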

Eleusine indica = test system: Eleusine indica
How it was run: as §1

Ipomoea purpurea = details: Table 98
How it was run: as §1

Alopecurus japonicus = test system: Alopecurus japonicus
How it was run: as §1

Sonchus arvensis = test system: Sonchus arvensis
How it was run: as §1

Abutilon theophrasti = test system: Abutilon theophrasti
How it was run: as §1

Ludwigia prostrate = test system: Ludwigia prostrate
How it was run: as §1

Capsella bursa-pastoris = test system: Capsella bursa-pastoris
How it was run: as §1

[1] = test system: Veronica persica^2 (collected in Zhumadian of Henan Province)
How it was run: as §1

Conyza Canadensis = test system: Conyza Canadensis
How it was run: as §1

Amaranthus retroflexus = test system: Amaranthus retroflexus
How it was run: as §1

Setaria viridis = details: A = A2 alone, g a.i./ha: r10 60, r11 60, r12 30, r13 30
How it was run: as §1

Eclipta prostrate = details: fresh weight inhibition after 24 days
How it was run: as §1

C[C@@H](Oc1nc(F)c(Cl)c(N)c1Cl)C(=O)O [Compound A1]
Control effect (%) of A applied alone in corresponding dose (Setaria glauca; 30 g a.i./ha): 34.7% | Control effect (%) of A applied alone in corresponding dose (Setaria glauca; 60 g a.i./ha): 57.6% | Control effect (%) of A applied alone in corresponding dose (Eleusine indica; Table 79, 75 g a.i./ha): 24.4% | Control effect (%) of A applied alone in corresponding dose (Eleusine indica; Table 79, 150 g a.i./ha): 52.2% | Control effect (%) of A applied alone in corresponding dose (Eleusine indica; Table 82, 75 g a.i./ha): 24.4% | Control effect (%) of A applied alone in corresponding dose (Eleusine indica; Table 82, 150 g a.i./ha): 52.2% | Control effect (%) of A applied alone in corresponding dose (Eleusine indica; Table 83, 75 g a.i./ha): 24.4% | Control effect (%) of A applied alone in corresponding dose (Eleusine indica; Table 83, 150 g a.i./ha): 52.2% | Control effect (%) of A applied alone in corresponding dose (Ipomoea purpurea; 75 g a.i./ha): 37.7% | Control effect (%) of A applied alone in corresponding dose (Ipomoea purpurea; 150 g a.i./ha (r12), r13 prints 75 + 7.5, A:B 20:1): 59.5% | Control effect (%) of A applied alone in corresponding dose (Alopecurus japonicus; A1 7.5 g a.i./ha): 25.6% | Control effect (%) of A applied alone in corresponding dose (Alopecurus japonicus; A1 15 g a.i./ha): 48.1% | Control effect (%) of A applied alone in corresponding dose (Alopecurus japonicus; A1 75 g a.i./ha): 25.6% | Control effect (%) of A applied alone in corresponding dose (Alopecurus japonicus; A1 150 g a.i./ha): 48.1% | Control effect (%) of A applied alone in corresponding dose (Sonchus arvensis; A1 30 g a.i./ha): 33.3% | Control effect (%) of A applied alone in corresponding dose (Sonchus arvensis; A1 60 g a.i./ha): 70.7% | Control effect (%) of A applied alone in corresponding dose (Abutilon theophrasti; A1 7.5 g a.i./ha): 44.3% | Control effect (%) of A applied alone in corresponding dose (Abutilon theophrasti; A1 15 g a.i./ha): 79.6% | Control effect (%) of A applied alone in corresponding dose (Ludwigia prostrate; A1 75 g a.i./ha): 34.3% | Control effect (%) of A applied alone in corresponding dose (Ludwigia prostrate; A1 150 g a.i./ha): 72.4% | Control effect (%) of A applied alone in corresponding dose (Capsella bursa-pastoris; A1 7.5 g a.i./ha): 36.2% | Control effect (%) of A applied alone in corresponding dose (Capsella bursa-pastoris; A1 15 g a.i./ha): 75.9% | Control effect (%) of A applied alone in corresponding dose ([1]; Table 87, 75 g a.i./ha): 19.6% | Control effect (%) of A applied alone in corresponding dose ([1]; Table 87, 150 g a.i./ha): 42.4% | Control effect (%) of A applied alone in corresponding dose ([1]; Table 88, 75 g a.i./ha): 19.6% | Control effect (%) of A applied alone in corresponding dose ([1]; Table 88, 150 g a.i./ha): 42.4% | Control effect (%) of A applied alone in corresponding dose ([1]; Table 90, 75 g a.i./ha): 19.6% | Control effect (%) of A applied alone in corresponding dose ([1]; Table 90, 150 g a.i./ha): 42.4%

C[C@@H](Oc1nc(F)c(Cl)c(N)c1Cl)C(=O)OCC1CCCO1 (stereo partly drawn) [Compound A2]
Control effect (%) of A applied alone in corresponding dose (Conyza Canadensis; A2 75 g a.i./ha): 36.7% | Control effect (%) of A applied alone in corresponding dose (Conyza Canadensis; A2 150 g a.i./ha): 57.2% | Control effect (%) of A applied alone in corresponding dose (Amaranthus retroflexus; A2 75 g a.i./ha): 22.9% | Control effect (%) of A applied alone in corresponding dose (Amaranthus retroflexus; A2 150 g a.i./ha): 52.4% | Control effect (%) of A applied alone in corresponding dose (Setaria viridis; A2 alone at 30 g a.i./ha): 32.7% | Control effect (%) of A applied alone in corresponding dose (Setaria viridis; A2 alone at 60 g a.i./ha): 56.3% | Control effect (%) of A applied alone in corresponding dose (Eclipta prostrate; A 75 g a.i/ha): 32.3% | Control effect (%) of A applied alone in corresponding dose (Eclipta prostrate; A 150 g a.i/ha): 68.4%
